Reference: patent publication US10882867B2, “Forms and compositions of a MK2 inhibitor” (Celgene CAR LLC, priority 2017, dated 2021)
Converted amounts (≈) assume the structure as drawn.

Tests used:
[1] = DSC and TGA thermal analysis; conditions: for % loss (TGA): screen sample; for endotherm observed (DSC): complex of Compound 1 with co-former, sample from primary salt/co-crystal screen
[2] = Approximate solubility of Compound 1 Form A at room temperature; assay type: physicochemical; conditions: for solubility at 1 day: thermodynamic from solid
Source text: Solubility of Form A was approximated in the following solvents: acetonitrile (ACN), ACN/water (1:1), n-butanol (n-BuOH), absolute ethanol (EtOH), ethanol/water (1:1), methanol (MeOH), 2-propanol (IPA), ethyl acetate (EtOAc), methyl acetate (MeOAc), dichloromethane (DCM), methyl ethyl ketone (MEK), methyl t-butyl ether (MTBE), heptane, toluene, methyl acetate (MeOAc), isopropyl acetate (IPAc), methyl isobutyl ketone (MIBK), 2-methyltetrahydrofuran (2-MeTHF), 1,4-dioxane, tetrahydrofuran (THF), THF/water (1:1), water, dimethyl sufoxide (DMSO), dimethylacetamide (DMA, DMAc), and N-methylpyrrolidone (NMP). A weighed sample of Form A (about 50 mg) was treated with a known volume of a test solvent. The resulting mixture was agitated for 1 day at room temperature. If all of the solids appeared to be dissolved by visual inspection, the estimated solubility was calculated based on the total volume of solvent used to give a complete solution. If solids were present, a known volume of filtrate was evaporated to dryness and the weight of the residue was measured to estimate the solubility.

[3] = Dynamic vapor sorption (DVS) hygroscopicity; assay type: physicochemical; conditions: for Hygroscopicity: DVS, 0 to 90% RH
Experimental: Hygroscopicity was determined on a Surface Measurement Systems DVS. A sample size of 5-20 mg was loaded into the DVS instrument sample pan and the sample was analyzed on a DVS automated sorption analyzer at room temperature. The relative humidity was increased from 0% to 90% RH at 10% RH step, then decreased in a similar manner to accomplish a full adsorption/desorption cycle. FIGS. 29-33 depict the DVS isotherm plots of Forms A, C, D, E, and I.

[4] = Form conversion (form transfer) experiments: slurry, compression, heating, humidity cycle; assay type: physicochemical
Experimental: Form conversion experiments were performed to determine interconversion among solid forms.
The stability of Form A was further characterized by compression test and form transfer experiments (Table 6). Upon application of 2000-psi pressure for about 1 minute, the material was still Form A, with broader diffraction peaks (FIG. 42(c)).

[5] = between 0 and 90% RH, room temperature
[6] = 0-90-0% RH cycle in DVS, 25° C.
[7] = compression, 2000 psi, RT, 1 min
[8] = heating in KF oven, 190° C., ~10 min

Compound: O=C(O)c1ccc2ccccc2c1O [1-hydroxy-2-naphthoic acid (Form 1)]
- % loss (TGA) ([1]; up to 150° C.): 10.82% loss up to 150 °C

Compound: O=C(O)c1ccc2ccccc2c1O [1-hydroxy-2-naphthoic acid (Form 2)]
- endotherm observed (DSC) [1]: endotherm observed at 169.60 °C
- % loss (TGA) ([1]; up to 150° C.): 1.86% loss up to 150 °C

Compound: CCOCc1cnc(Cl)nc1Oc1ccc2c(ccc3sc4c(c32)NC[C@@H](C)NC4=O)n1 [Form A, (R)-3-((2-chloro-5-(ethoxymethyl)pyrimidin-4-yl)oxy)-10-methyl-9,10,11,12-tetrahydro-8H-[1,4]diazepino[5′,6′:4,5]thieno[3,2-f]quinolin-8-one]
- solubility at 1 day ([2]; 2-MeTHF (2-methyltetrahydrofuran), organic solvent or mixture, 2-MeTHF, 1 day): < 2000 µg/mL
- solubility at 1 day ([2]; ACN (acetonitrile), organic solvent or mixture, ACN, 1 day): < 2000 µg/mL
- solubility at 1 day ([2]; ACN/water (1:1), aqueous with cosolvent or surfactant or cyclodextrin, ACN/water (1:1), 1 day): < 1000 µg/mL
- solubility at 1 day ([2]; DCM (dichloromethane), organic solvent or mixture, DCM, 1 day): 8000 to 16000 µg/mL (≈ 17 to 34 mM)
- Approximate Solubility ([2]; DCM, 1 day): <9000 µg/mL
- solubility at 1 day ([2]; DMA (dimethylacetamide), organic solvent or mixture, DMA, 1 day): > 50000 µg/mL
- Approximate Solubility ([2]; DMA, 1 day): >50000 µg/mL
- Approximate Solubility ([2]; DMSO, 1 day): >50000 µg/mL
- solubility at 1 day ([2]; DMSO, organic solvent or mixture, 1 day): > 50000 µg/mL
- solubility at 1 day ([2]; EtOAc (ethyl acetate), organic solvent or mixture, EtOAc, 1 day): < 1000 µg/mL
- solubility at 1 day ([2]; EtOH (absolute ethanol), organic solvent or mixture, EtOH, 1 day): < 2000 µg/mL
- solubility at 1 day ([2]; EtOH/water (1:1), aqueous with cosolvent or surfactant or cyclodextrin, EtOH/water (1:1), 1 day): < 1000 µg/mL
- solubility at 1 day ([2]; IPA (2-propanol), organic solvent or mixture, IPA, 1 day): < 1000 µg/mL
- solubility at 1 day ([2]; IPAc (isopropyl acetate), organic solvent or mixture, IPAc, 1 day): < 1000 µg/mL
- solubility at 1 day ([2]; MEK (methyl ethyl ketone), organic solvent or mixture, MEK, 1 day): > 2000 µg/mL
- Approximate Solubility ([2]; MEK, 1 day): <3000 µg/mL
- solubility at 1 day ([2]; MIBK (methyl isobutyl ketone), organic solvent or mixture, MIBK, 1 day): < 1000 µg/mL
- solubility at 1 day ([2]; MTBE (methyl t-butyl ether), organic solvent or mixture, MTBE, 1 day): < 1000 µg/mL
- solubility at 1 day ([2]; MeOAc (methyl acetate), organic solvent or mixture, MeOAc, 1 day): < 2000 µg/mL
- solubility at 1 day ([2]; MeOH (methanol), organic solvent or mixture, MeOH, 1 day): < 3000 µg/mL
- solubility at 1 day ([2]; NMP (N-methylpyrrolidone), organic solvent or mixture, NMP, 1 day): > 50000 µg/mL
- Approximate Solubility ([2]; NMP, 1 day): >50000 µg/mL
- solubility at 1 day ([2]; THF (tetrahydrofuran), organic solvent or mixture, THF, 1 day): 8000 to 16000 µg/mL (≈ 17 to 34 mM)
- Approximate Solubility ([2]; THF, 1 day): <10000 µg/mL
- Approximate Solubility ([2]; THF/water (1:1), 1 day): <16000 µg/mL
- solubility at 1 day ([2]; THF/water (1:1), aqueous with cosolvent or surfactant or cyclodextrin, THF/water (1:1), 1 day): 8000 to 16000 µg/mL (≈ 17 to 34 mM)
- Approximate Solubility ([2]; acetone, 1 day): <3000 µg/mL
- solubility at 1 day ([2]; acetone, organic solvent or mixture, 1 day): > 2000 µg/mL
- solubility at 1 day ([2]; heptane, organic solvent or mixture, 1 day): < 1000 µg/mL
- solubility at 1 day ([2]; n-BuOH (n-butanol), organic solvent or mixture, n-BuOH, 1 day): < 1000 µg/mL
- solubility at 1 day ([2]; organic solvent or mixture, all other solvents tested (not DMSO, DMA, NMP, THF/water, THF, DCM, acetone, 1,4-dioxane, MEK)): < 3000 µg/mL
- solubility at 1 day ([2]; toluene, organic solvent or mixture, 1 day): < 1000 µg/mL
- solubility at 1 day ([2]; water, 1 day): < 1000 µg/mL
- Hygroscopicity [3]: slightly hygroscopic
- DVS water uptake [3, 5]: about 2.5 wt %
- DVS water uptake ([3]; between 0 and 90% RH, room temperature, listed as A): DVS: ~2.5 wt % water
- Resulting Form(s) [4, 6]: No form change
- Resulting Form(s) [4, 7]: still Form A
- Resulting Form(s) [4, 8]: confirmed to be Form A

Compound: CCOCc1cnc(Cl)nc1Oc1ccc2c(ccc3sc4c(c32)NC[C@@H](C)NC4=O)n1 [Form B, (R)-3-((2-chloro-5-(ethoxymethyl)pyrimidin-4-yl)oxy)-10-methyl-9,10,11,12-tetrahydro-8H-[1,4]diazepino[5′,6′:4,5]thieno[3,2-f]quinolin-8-one]
- Resulting Form(s) [4, 7]: mainly Form B, with a small amount of Form A
- Resulting Form(s) ([4]; compression, 2000 psi, RT, 1 min, listed as B): B + A
- Resulting Form(s) [4, 8]: confirmed to be Form A
- Form change upon storage ([4]; storage in vials): convert to Form A

Compound: CCOCc1cnc(Cl)nc1Oc1ccc2c(ccc3sc4c(c32)NC[C@@H](C)NC4=O)n1 [Form C, (R)-3-((2-chloro-5-(ethoxymethyl)pyrimidin-4-yl)oxy)-10-methyl-9,10,11,12-tetrahydro-8H-[1,4]diazepino[5′,6′:4,5]thieno[3,2-f]quinolin-8-one]
- Hygroscopicity [3]: hygroscopic
- DVS water uptake [3, 5]: approximately 4.1 wt %
- DVS water uptake ([3]; between 0 and 90% RH, room temperature, listed as C): DVS: ~4.1 wt % water
- Resulting Form(s) [4, 6]: E + C + peaks
- Resulting Form(s) [4, 7]: partially convert to Form E
- Resulting Form(s) ([4]; compression, 2000 psi, RT, 1 min, listed as C): E + C + peaks
- Resulting Form(s) [4, 8]: a mixture of Form A and Form C
- Resulting Form(s) ([4]; heating in KF oven, 190° C., ~10 min, listed as C): A + C (shifted)
- Resulting form ([4]; slurry in THF/water (5:95), time not given): convert to Form E

Compound: CCOCc1cnc(Cl)nc1Oc1ccc2c(ccc3sc4c(c32)NC[C@@H](C)NC4=O)n1 [Form D, (R)-3-((2-chloro-5-(ethoxymethyl)pyrimidin-4-yl)oxy)-10-methyl-9,10,11,12-tetrahydro-8H-[1,4]diazepino[5′,6′:4,5]thieno[3,2-f]quinolin-8-one]
- Hygroscopicity [3]: slightly hygroscopic
- DVS water uptake [3, 5]: about 2.6 wt %
- DVS water uptake ([3]; between 0 and 90% RH, room temperature, listed as D): DVS: ~2.6 wt % water
- Resulting Form(s) [4, 6]: No form change
- Resulting Form(s) [4, 7]: mainly Form D
- Resulting Form(s) ([4]; compression, 2000 psi, RT, 1 min, listed as D): D (+ A?)
- Resulting Form(s) [4, 8]: confirmed to be Form A

Compound: CCOCc1cnc(Cl)nc1Oc1ccc2c(ccc3sc4c(c32)NC[C@@H](C)NC4=O)n1 [Form E, (R)-3-((2-chloro-5-(ethoxymethyl)pyrimidin-4-yl)oxy)-10-methyl-9,10,11,12-tetrahydro-8H-[1,4]diazepino[5′,6′:4,5]thieno[3,2-f]quinolin-8-one]
- DVS water uptake ([3]; between 0 and 60% RH): about 2.2 wt %
- DVS water uptake [3, 5]: 7.5 wt %
- DVS water uptake ([3]; between 0 and 90% RH, room temperature, listed as E): DVS: ~7.5 wt % water
- Resulting Form(s) [4, 6]: No form change
- Resulting form ([4]; THF/water (5/95), long periods of equilibration): converted to Form A
- Resulting Form(s) [4, 7]: still Form E
- Resulting Form(s) [4, 8]: confirmed to be Form E
- Resulting form ([4]; slurry in acetone, temperature and time not given): converts to Form A

Compound: CCOCc1cnc(Cl)nc1Oc1ccc2c(ccc3sc4c(c32)NC[C@@H](C)NC4=O)n1 [Form H, (R)-3-((2-chloro-5-(ethoxymethyl)pyrimidin-4-yl)oxy)-10-methyl-9,10,11,12-tetrahydro-8H-[1,4]diazepino[5′,6′:4,5]thieno[3,2-f]quinolin-8-one]
- Resulting Form(s) ([4]; slurry in THF/water (5:95), RT, 8 days): A + I
- Resulting Form(s) ([4]; slurry in water, RT, 4 days): generated Form I

Compound: CCOCc1cnc(Cl)nc1Oc1ccc2c(ccc3sc4c(c32)NC[C@@H](C)NC4=O)n1 [Form I, (R)-3-((2-chloro-5-(ethoxymethyl)pyrimidin-4-yl)oxy)-10-methyl-9,10,11,12-tetrahydro-8H-[1,4]diazepino[5′,6′:4,5]thieno[3,2-f]quinolin-8-one]
- DVS water uptake [3, 5]: Approximately 1.5 wt %
- Resulting Form(s) [4, 6]: change to Form A

Compound: O=C1O[C@H]([C@@H](O)CO)C(O)=C1O [L-ascorbic acid]
- endotherm observed (DSC) [1]: endotherm observed at 88.26 °C
- % loss (TGA) ([1]; up to 100° C.): 2.55% loss up to 100 °C

Compound: NCCCC[C@H](N)C(=O)O [L-lysine]
- % loss (TGA) ([1]; from 150 to 250° C.): 12.61% loss from 150 to 250 °C
- % loss (TGA) ([1]; up to 150° C.): 7.32% loss up to 150 °C

Compound: O=C(O)c1cc(O)ccc1O [gentisic acid]
- endotherm observed (DSC) [1]: endotherm observed at 115.17 °C
- % loss (TGA) ([1]; up to 120° C.): 1.69% loss up to 120 °C

Compound: O=C(O)/C=C\C(=O)O [maleic acid]
- endotherm observed (DSC) [1]: endotherm observed at 153.89 °C
- % loss (TGA) ([1]; up to […] C.): 9.87% loss up to 155 °C

Compound: CS(=O)(=O)O [methanesulfonic acid]
- endotherm observed (DSC) [1]: endotherm observed at 157.01 °C
- % loss (TGA) ([1]; up to 160° C.): 8.28% loss up to 160 °C

Compound: Cc1ccc(S(=O)(=O)O)cc1 [p-toluenesulfonic acid]
- % loss (TGA) ([1]; up to 130° C.): 3.50% loss up to 130 °C

Compound: O=C1NS(=O)(=O)c2ccccc21 [saccharin]
- % loss (TGA) ([1]; up to […] C.): 3.70% loss up to 165 °C

Compound: N#CS [thiocyanic acid]
- % loss (TGA) ([1]; from 100 to 200° C.): 6.54% loss from 100 to 200 °C
- % loss (TGA) ([1]; up to 100° C.): 3.04% loss up to 100 °C
